# pIC50: −log10 of the molar value.
# Columns and labels:
# IL-2 [1] = assay: IL-2 expression, intracellular cytokine staining and flow cytometry in CD4+ T cells; format: cell-based, mouse or human; settings: anti-CD3+anti-CD28 for 6 hours, % cytokine-expressing CD4+ T cells; data not shown
# Experimental: (§1) Since autoimmune diseases are associated with elevated levels of inflammatory cytokines, it is important to identify Rel inhibitors that can inhibit the expression of inflammatory cytokines. As c-Rel regulates the expression of several cytokines including IL-2, IFN-γ, and TNF, assays for these cytokines can be used to assess the anti-inflammatory effects of Rel inhibitor analogs. To perform such experiments, mouse splenocytes or human PBMCs were stimulated with anti-CD3+anti-CD28 for 6 hours to induce cytokine expression. Compounds were added at the beginning of the culture. Cytokines (IL-2, IFN-γ, and TNF) were measured by intracellular cytokine staining and flow cytometry and the % of cytokine-expressing cells within CD4+ T cell population was enumerated. Compounds at varying doses were tested.
# CD69 = assay: Expression of non-c-Rel target genes; format: cell-based, mouse or human
# DLBCL tumor cells = assay: DLBCL xenograft tumor model in NOD/SCID mice; format: in vivo, mouse
# Experimental: Xenograft tumor models have been widely used to study human cancer. […] The experiment used non-obese diabetic (NOD)/SCID mice for testing Rel inhibitor analogs.
# Male NOD/SCID mice were injected with 3-5×10^6 of DLBCL tumor cells subcutaneously in each flank area. When tumors were palpable (˜12 days after injection), the mice were randomized to receive either vehicle or test compounds corresponding to Rel inhibitors of the invention. In some experiments, DHMEQ was used as a benchmark compound. Compounds were administrated via i.p. at 12 to 24 mg/kg, three days per week for 2-3 weeks. Tumor volume was measured twice a week.
# MM1-144 cells = assay: Tumor cell cytotoxicity assay, multiple myeloma cell line MM1-144; format: cell-based; settings: MM1-144 cells (use both pathways), 48 hours
# Experimental: (§2) For example, the “classical” Rel pathway is crucial for the survival of L363 cell line, whereas the “alternative” pathway is important for the survival of RPMI8226 cells.
# (§3) The MM and DLBCL cell lines were used to test for tumor cell cytotoxicity by the Rel inhibitor analogs. As an example, three MM cell lines were treated with a Rel inhibitor for 48 hours and cell numbers were enumerated as percentage of control group.
# L363 cells = assay: Tumor cell cytotoxicity assay, multiple myeloma cell line L363; format: cell-based; settings: L363 cells (active classical pathway), 48 hours
# Experimental: as §2, §3
# RPMI8226 cells = assay: Tumor cell cytotoxicity assay, multiple myeloma cell line RPMI8226; format: cell-based; settings: RPMI8226 cells (active alternative pathway), 48 hours
# Experimental: as §2, §3
# TNF = TNF expression, intracellular cytokine staining and flow cytometry in CD4+ T cells; format: cell-based, mouse or human; settings: anti-CD3+anti-CD28 for 6 hours, % cytokine-expressing CD4+ T cells; data not shown
# Experimental: as §1
# IFN-γ = IFN-γ expression, intracellular cytokine staining and flow cytometry in CD4+ T cells; format: cell-based, mouse or human; settings: anti-CD3+anti-CD28 for 6 hours, % cytokine-expressing CD4+ T cells; data not shown
# Experimental: as §1
# STZ-induced diabetes = assay: Streptozotocin (STZ)-induced diabetes model; format: in vivo; settings: 40 μg/mouse/day IP, day 0 to day 5, C57BL/6 mice; data not shown
# Experimental: In yet another example, a Rel inhibitor compound was tested in Streptozotocin (STZ)-induced diabetes model. C57BL/6 (cRel+/+) mice were treated with low dose STZ for 5 days to induce diabetes, as indicated by glucose level above 300 mg/dl. c-Rel(−/−) mice were used as a control group. The Rel inhibitor (BA-001, 40 μg/mouse/day) or DMSO were injected IP to a group of five C57BL/6 mice for six consecutive days from day 0 to day 5. Glucose levels were determined at day 5, 7, 9, 12, 15, 19 and 27.
# IL-2 [2] = assay: IL-2 expression by ELISA in stimulated mouse splenocytes; format: cell-based; settings: Splenocyte, mouse splenocytes stimulated with anti-CD3+anti-CD28, 0 to 20 μM, read-out: IC50 of IL2 inhibition
# Experimental: In yet another example, IL-2 expression was quantified by ELISA analysis. In these experiments, mouse splenocytes were stimulated with anti-CD3+anti-CD28, in the presence of varying doses of Rel inhibitors (from 0 to 20 μM).
# DLBCL tumor cell lines = assay: DLBCL cytotoxicity assay; format: cell-based; settings: read-out: IC50 on DLBCL cytotoxicity assay
# Experimental: as §3
# The IC50 was defined as the concentration that causes 50% cell death compared with control samples. […] In summary, tumor cell lines were utilized to select for Rel inhibitors with tumor cytoxicity activities. […] Those compounds with in vitro anti-tumor activity were further tested in vivo using xenograft tumor models.
# EAE = EAE model (multiple sclerosis) in C57BL/6 mice; format: in vivo, mouse
# Experimental: As an example, C57BL/6 mice were immunized to induce EAE with 1) a subcutaneous injection on flanks of […] MOG38-50 peptide in 0.1 ml PBS emulsified in an equal volume of complete Freund's adjuvant containing […] mycobacterium tuberculosis H37RA, and 2) an intravenous injection of 100 ng pertussis toxin in 0.1 ml PBS. A second injection of pertussis toxin (100 ng per mouse) was given 48 hr later.
# Mice were subsequently injected i.p. with 300 μg BA-039 (n=4) or vehicle (n=3) daily beginning with the first day of EAE onset. Mice were monitored daily for disease score up to 16 days.
# In a second set of this experiment, treatment of the mice was stopped on the 16th day of the study and further monitored for additional 22 days. […] By contrast, the BA-039 treated group remained devoid of disease (average clinical score 1-2) (data not shown, manuscript in preparation). […] The data provide important information about treatment regimen with Rel inhibitors for multiple sclerosis patients in the future.
smiles,measurement,setting,value
"COc1ccc(C=C2C(=O)NC(=S)NC2=O)c(OC)c1 [BA-001, 5-(2,4-dimethoxybenzylidene)-2-thioxodihydro-pyrimidine-4,6(1H,5H)-dione]",pIC50,IL-2 [1],~5.22
same,inhibitory effect toward non-c-Rel target genes (e.g. CD69),CD69,no inhibitory effects
same,tumor growth compared to vehicle controls,"DLBCL tumor cells; 24 mg/Kg i.p., three days per week, NOD/SCID mice",slowed the tumor growth
same,anti-tumor potency compared with DHMEQ,"DLBCL tumor cells; both 12 to 24 mg/kg doses, DLBCL xenograft mouse model",much better potency than DHMEQ
same,growth inhibition (cell numbers as percentage of control group),MM1-144 cells,only partially inhibited
same,growth inhibition (cell numbers as percentage of control group),L363 cells,dose-dependent apoptosis
same,growth inhibition (cell numbers as percentage of control group),RPMI8226 cells,quite resistant
same,pIC50,TNF,~5.22
same,pIC50,IFN-γ,~5.22
same,resistance to STZ-induced diabetes (glucose level),STZ-induced diabetes,resistant to STZ-induced diabetes
same,pIC50,IL-2 [2],4.82
"COc1ccc(C=C2C(=O)NC(=O)NC2=O)c2ccccc12 [BA-009, 5-((4-methoxynaphthalen-1-yl)methylene) pyrimidine-2,4,6(1H,3H,5H)-trione]",tumor volume compared to vehicle controls,"DLBCL tumor cells; 15 mg/kg i.p., three days per week, NOD/SCID mice",significantly smaller tumor volume
"COc1ccc(N2C(=O)/C(=C\c3c(OC)ccc4ccccc34)C(=O)NC2=S)cc1 [BA-030, 5-((2-methoxynaphthalen-1-yl)methylene)-1-(4-methoxyphenyl)-2-thioxodihydro-pyrimidine-4,6(1H,5H)-dione]",pIC50,DLBCL tumor cell lines,5.40
same,pIC50,IL-2 [2],6.40
"COc1cc(OC)c2ccccc2c1C=C1C(=O)NC(=S)NC1=O [BA-039, 5-((2,4-dimethoxynaphthalen-1-yl)methylene)-2-thioxodihydropyrimidine-4,6(1H,5H)-dione]",disease score,"EAE; 300 μg i.p. daily from first day of EAE onset, up to 16 days, reduced from 2, vehicle rises 2 to 5",1
same,average clinical score,"EAE; 22 days after treatment stopped on 16th day, control group score 5",1-2

# Reference: patent US9873674B2, “C-Rel inhibitors and uses thereof” (CORNELL UNIVERSITY, priority 2012, dated 2018)
